From patent US20220249564A1, “PDL1 POSITIVE NK CELL CANCER TREATMENT” (City of Hope, priority 2019, published 2022)

Assays:
[1] = tested on: NK cells incubated with K562 cells; test: p38 inhibitors on AZ-induced PD-L1, CD107α and IFN-γ expression of NK cells; format: cell-based, human; conditions: presence of K562 tumor cells, 1 μM inhibitor; for AZ-induced PD-L1 expression: FIG. 6H; for AZ-induced CD107α expression of NK cells / AZ-induced IFN-γ expression of NK cells: FIG. 6J
Experimental: (§1) FIGS. 6A-6J present data showing signaling pathways activating PD-L1^+ NK cells. […] “D1+” represents PD-L1^+ NK cells from donor 1, while “D1−” represents PD-L1^− NK cells from donor 1, each purified by FACS sorting. Similar definitions are applied to “D2+”, “D2−”, “D3+”, and “D3−”. Expression of Cd274 (PD-L1), Cd226, Tbx21, Eomes, Smad3 and Aka are highlighted by black arrows. […] The percentages of PD-L1+ NK cells were measured by flow cytometry. […] Data were generated from five (5) independent donors, and the experiment was repeated three times. […] Relative promoter activity was measured by luciferase assay after 48 hours. […] The experiments were repeated three times. […] The experiments were repeated three times.
Two paired groups were compared by paired t-test. One-way ANOVA with repeated measures or linear mixed model was used to compare three (3) or more donor-matched groups. P values were adjusted by the Holm-Sidak method.
(§2) Cells were suspended in 100 μl PBS with 2% FBS and incubated with the indicated mAb (Table 2) at room temperature for 20 mins. After washing with 2% FBS for one time and PBS for another time, cells were fixed in 1% paraformaldehyde buffer for immediate analysis by flow cytometry using a LSRII flow cytometer (BD Biosciences). Cells used for sorting were re-suspended in RPMI 1640 containing 10% FBS. For intracellular flow cytometry, cells were permeabilized and fixed using the Foxp3/Transcription Factor Fixation/Permeabilization kit (eBioscience, Cat #00-5523-00). Data were analyzed by FlowJo software.

[2] = tested on: PD-L1 expression on NK cells; test: PD-L1 expression on NK cells incubated with K562 cells in the presence of pathway inhibitors; format: cell-based, human; conditions: inhibitor 1 μM or 10 μM, FIGS. 6B, 6C
Experimental: as §1
To investigate mechanisms by which PD-L1 is induced in NK cells by myeloid leukemia cells, an RNA microarray was performed to profile gene expression in PD-L1^+ NK cells vs PD-L1^− NK cells, both of which were FACS-purified from bulk NK cells after being co-cultured with K562 cells. […] They were subsequently incubated with K562 myeloid leukemia cells and then PD-L1 expression on NK cells was measured. […] A PD-L1 promoter was cloned 2.1 kb upstream of the transcription start site, co-transfected with genes for specific transcription factors in 293T cells, and the activity of the PD-L1 promoter was measured by luciferase assay. […]

PD-L1+ NK cells = test: NK cell CD107α and IFN-γ expression after AZ treatment (flow cytometry); format: cell-based, human
Experimental: (§3) FIGS. 3A-3D present data showing that anti-PD-L1 monoclonal antibody atezolizumab (AZ) activates PD-L1 signaling in NK cells and enhances NK cell function. […] The P values were corrected for multiple comparisons by Holm's method. […] The experiment was repeated three times with three different donors. […] NK cells were sorted and the relative levels of PD-L1 mRNA expression were measured by qRT-PCR. The experiment was repeated three times. […] Two paired groups were compared by paired t-test. One-way ANOVA with repeated measures or linear mixed model was used to compare three (3) or more donor-matched groups. P values were adjusted by the Holm-Sidak method.
Peripheral blood samples from healthy donors were obtained from The American Red Cross. Human PBMCs were isolated by Percoll density gradient centrifugation. Primary human NK cells were enriched from the peripheral blood of healthy donors using an NK Cell Enrichment Kit (Miltenyi Biotec, Cat #0.130-115-818). Enriched NK cells with purity about 90% were either sorted by fluorescence-activated cell sorting (FACS) to the purity around 96% and then used or used immediately for in vitro cell culture experiments. […] All cell lines were maintained in RPMI 1640 medium supplemented with 10% FBS and 100 U/ml penicillin/streptomycin. For co-culture stimulation experiments, PBMCs, enriched NK cells, or FACS-sorted NK cells were co-incubated with various cell lines including K562, MOLM-13, AML3, RPMI 8226 or MV-4-11 at an effector/target (E/T) ratio of 10:1. […] For transwell assay experiments, 5×10^5 enriched human primary NK cells were seeded in the upper chamber of a transwell plate. The lower chamber of the transwell plate was seeded with 5×10^4 K562 myeloid leukemia cells. The transwell plate with cells was incubated at 37° C. for 20 hr.
Cells were suspended in 100 μl PBS with 2% FBS and incubated with the indicated mAb (Table 2) at room temperature for 20 mins. […] Data were analyzed by FlowJo software.

[3] = tested on: PD-L1 expression on NK cells; test: PD-L1 expression of K562-pretreated NK cells after AZ (qRT-PCR, flow cytometry); format: cell-based, human; conditions: time dependent
Experimental: as §3
as §2, with “software. […]” for “software.”

[4] = tested on: PD-L1-KO K562 myeloid leukemia cells; test: NSG mouse model with human primary NK cells and PD-L1-KO K562 cells; format: in vivo, NSG mice
Text: After 6 days, mice were sacrificed and NK cells were isolated and assessed for PD-L1 expression by flow cytometry. […] PBS instead of IgG1 was used as placebo because AZ lacks antibody-dependent cellular cytotoxicity activity. After 6 days (three treatments), mice were sacrificed and human NK cells were examined for their expression of granzyme B, CD107α, and IFN-γ, while the number of PD-L1-knockout K562 myeloid leukemia cells (as shown in FIG. 5C) was enumerated by flow cytometry. […] Two paired groups were compared by paired t-test. One-way ANOVA with repeated measures or linear mixed model was used to compare three (3) or more donor-matched groups. P values were adjusted by the Holm-Sidak method. Kaplan-Meier method was used to estimate survival functions and log-rank test was applied to group comparisons.
8-week old NSG mice were intravenously (i.v.) injected with PD-L1 knockout K562 myeloid leukemia cells at a concentration of 2 million cells per mouse. […] Mice in the atezolizumab (AZ)-treated or control group were simultaneously i.p-injected with 200 μg AZ in 200 μL PBS or 200 μL PBS per mouse. Cytokines and AZ were injected every other day for a total of […]. The numbers of NK cells and tumor cells were examined at day 6 post injection.

[5] = tested on: p38, p-ERK, p-AKT, p-mTOR in NK cells; test: Downstream kinase phosphorylation in NK cells after AZ (intracellular flow cytometry, immunoblot); format: cell-based, human; conditions: NK cells with K562 cells, AZ treatment
Experimental: as §1
FIG. 13 presents data showing induction of p38-NF-κB signaling in primary human NK cells by the anti-PD-L1 antibody AZ. […] The histograms provided in the upper panel represent quantification of various phosphorylated kinases expressed in NK cells, followed by a graphical summary of the data (n=3) below each histogram. One-way ANOVA with repeated measures or linear mixed model was used to compare three (3) or more donor-matched groups and P values were adjusted by the Holm-Sidak method. ****, P<0.0001; NS=not significant.
as §2
Cells were pelleted and lysed in protein extraction reagent (Thermo Fisher, Cat. #78510) supplied with proteinase inhibitors. Standard procedures were used for immunoblotting. Primary antibodies used were PD-L1 (Cell Signaling Technology, Cat. #13684), GAPDH (Cell Signaling Technology, Cat. #2118), β-actin (Cell Signaling Technology, Cat. #4967), p-p38 (Cell Signaling Technology, Cat. #9211) and p-AKT (Cell Signaling Technology, Cat. #9271). Proteins were detected using goat anti-rabbit HRP-conjugated secondary antibodies (Cell Signaling Technology, Cat. #7074).

[6] = tested on: PD-L1 expression on expanded human primary NK cells; test: PD-L1 expression on expanded human primary NK cells with AZ; format: cell-based; conditions: expanded 7 days with K562 feeder cells, with or without 5 ng/ml IL-12 and IL-18 for 20 h; FIG. 15
Experimental: Expanded human primary NK cells for 7 days with indicated medium (R10: RPMI1640+10% FBS; MACS: MACS medium+5% human serum; SCGM: SCGM medium+5% human serum) were treated with or without 5 ng/ml IL-12 and IL-18 for 20 h in the presence of AZ or not. The expression of PD-L1 were examined by flow cytometry. P values of multiple comparison were analyzed using one-way ANOVA. Multiple comparison test was adjusted by Holm-Sidak method. ****, P<0.0001.
Expanded human primary NK cells for 7 days with indicated medium (R10: RPMI1640+10% FBS; MACS: MACS medium+5% human serum; SCGM: SCGM medium+5% human serum) were treated with or without 5 ng/ml IL-12 and IL-18 for 20 h in the presence of AZ or not. The expression of PD-L1 were examined by flow cytometry (FIG. 15). PBMC from lung cancer patients were isolated and examined for PD-L1 expression by flow cytometry (FIG. 16).

ADCC = conditions: Fc domain modification; cited from earlier work
[7] = tested on: PD-L1 expression on NK cells; test: Induction of PD-L1 expression on NK cells by NK cell-activating cytokines; format: cell-based, human; conditions: alone or in combination with other cytokines, 10 ng/mL, 24 hour; FIG. 11F
Experimental: The cytotoxicity levels of total NK cells incubated with medium alone were served as control. The cytokine-treated bulk NK cells were permeabilized and gated PD-L1+ and PD-L1^− cells to measure the MFI of IFN-γ by flow cytometry assay as shown in FIG. 11D. […] Summary graph (n=3) is shown at the bottom. […] Summary graph (n=3) is shown at the bottom. Two-sample t test was used for 2-group comparisons. One-way ANOVA was used to compare three (3) or more groups and P values were adjusted by the Holm-Sidak method. **, P<0.01; ***, P<0.001; ****, P<0.0001; NS=not significant.
Peripheral blood samples from healthy donors were obtained from The American Red Cross. Human PBMCs were isolated by Percoll density gradient centrifugation. Primary human NK cells were enriched from the peripheral blood of healthy donors using an NK Cell Enrichment Kit (Miltenyi Biotec, Cat #0.130-115-818). Enriched NK cells with purity about 90% were either sorted by fluorescence-activated cell sorting (FACS) to the purity around 96% and then used or used immediately for in vitro cell culture experiments. NK cells were cultured in RPMI 1640 supplemented with 20% FBS, 100 U/ml penicillin/streptomycin, and 10 ng/ml IL-2. […]
Cells were suspended in 100 μl PBS with 2% FBS and incubated with the indicated mAb (Table 2) at room temperature for 20 mins. […] Data were analyzed by FlowJo software. […]

[8] = NK cells stimulated with PD-L1 knock-out K562 cells 20 hours, then 20 μg/mL AZ 4 hours, FIG. 3A
[9] = vs placebo (PBS), i.p. every other day, after 6 days, FIG. 5B

Oc1ccc(-c2nc(-c3ccncc3)c(-c3ccc(F)cc3)[nH]2)cc1 [SB202190]
AZ-induced PD-L1 expression [1]: reduce
AZ-induced CD107α expression of NK cells [1]: inhibited
AZ-induced IFN-γ expression of NK cells [1]: inhibited

C[S+]([O-])c1ccc(-c2nc(-c3ccncc3)c(-c3ccc(F)cc3)[nH]2)cc1 (stereo not drawn) [SB203580]
AZ-induced PD-L1 expression [1]: reduce
AZ-induced CD107α expression of NK cells [1]: inhibited
AZ-induced IFN-γ expression of NK cells [1]: inhibited

Cc1ccc(S(=O)(=O)N[C@@H](Cc2ccccc2)C(=O)CCl)cc1 [TPCK]
PD-L1 expression on NK cells [2]: regulation role of p65 in PD-L1 expression was confirmed

Cn1ncc(Cl)c1-c1cc(C(=O)N[C@H](CN)Cc2cccc(F)c2)sc1Cl [afuresertib]
PD-L1 expression on NK cells [2]: significantly reduced

atezolizumab [AZ]
expression of CD107a in PD-L1+ NK cells (PD-L1+ NK cells; [8]): increased
expression of IFN-γ in PD-L1+ NK cells (PD-L1+ NK cells; [8]): increased
IFN-γ production of PD-L1-transduced NK cells (PD-L1+ NK cells; lentiviral PD-L1-transduced NK cells treated with AZ, FIG. 3B): even more dramatically increased
PD-L1 expression of NK cells, mRNA level ([3]; NK cells pretreated with K562, 20 μg/mL AZ, FIG. 3C): further elevated
PD-L1 expression of NK cells, protein level ([3]; NK cells pretreated with K562, AZ, FIG. 3D): further elevated
NK cell expression of CD107α [4, 9]: significant increase
NK cell expression of IFN-γ [4, 9]: significant increase
NK cell expression of granzyme B [4, 9]: significant increase
tumor burden (number of PD-L1-KO K562 cells) ([4]; vs placebo-treated mice, upon sacrifice, FIG. 5C): significantly lower
level of p38 ([5]; IL-2 10 ng/mL, FIG. 13, 6G): increased
level of p-ERK ([5]; FIG. 13): not increased
level of p-mTOR ([5]; FIG. 13): not increased
level of p-AKT ([5]; FIG. 13, 6G): not increased
expression of PD-L1 on expanded human primary NK cells [6]: further enhanced
ADCC effect (ADCC): absence

recombinant IFN-γ: recombinant interferon gamma
PD-L1 expression on NK cells [7]: could not induce
